From ChEMBL document CHEMBL5291721, “A preclinical secondary pharmacology resource illuminates target-adverse drug reaction associations of marketed drugs” (Nat Commun, 2023)

Assays:
[1] = target: T1, Estrogen receptor (Homo sapiens, UniProt P03372)
T1 sequence (P03372 whole entry): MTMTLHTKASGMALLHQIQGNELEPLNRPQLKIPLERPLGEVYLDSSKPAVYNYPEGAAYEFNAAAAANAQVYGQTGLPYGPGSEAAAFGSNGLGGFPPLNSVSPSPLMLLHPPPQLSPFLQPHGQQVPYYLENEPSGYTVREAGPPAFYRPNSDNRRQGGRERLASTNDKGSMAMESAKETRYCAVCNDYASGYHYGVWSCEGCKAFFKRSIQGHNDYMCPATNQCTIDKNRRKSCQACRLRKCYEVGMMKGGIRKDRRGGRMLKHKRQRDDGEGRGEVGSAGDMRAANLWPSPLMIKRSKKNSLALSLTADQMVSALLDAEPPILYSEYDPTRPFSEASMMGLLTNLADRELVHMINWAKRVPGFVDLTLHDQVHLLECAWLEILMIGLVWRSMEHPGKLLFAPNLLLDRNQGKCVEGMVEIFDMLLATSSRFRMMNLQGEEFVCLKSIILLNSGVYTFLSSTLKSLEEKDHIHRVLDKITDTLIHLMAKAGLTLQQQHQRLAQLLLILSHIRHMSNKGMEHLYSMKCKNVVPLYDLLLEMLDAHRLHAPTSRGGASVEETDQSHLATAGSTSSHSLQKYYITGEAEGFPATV

[2] = target: T2, 5-hydroxytryptamine receptor 1A (Homo sapiens, UniProt P08908); assay type: functional, cell-based
T2 sequence (P08908 whole entry): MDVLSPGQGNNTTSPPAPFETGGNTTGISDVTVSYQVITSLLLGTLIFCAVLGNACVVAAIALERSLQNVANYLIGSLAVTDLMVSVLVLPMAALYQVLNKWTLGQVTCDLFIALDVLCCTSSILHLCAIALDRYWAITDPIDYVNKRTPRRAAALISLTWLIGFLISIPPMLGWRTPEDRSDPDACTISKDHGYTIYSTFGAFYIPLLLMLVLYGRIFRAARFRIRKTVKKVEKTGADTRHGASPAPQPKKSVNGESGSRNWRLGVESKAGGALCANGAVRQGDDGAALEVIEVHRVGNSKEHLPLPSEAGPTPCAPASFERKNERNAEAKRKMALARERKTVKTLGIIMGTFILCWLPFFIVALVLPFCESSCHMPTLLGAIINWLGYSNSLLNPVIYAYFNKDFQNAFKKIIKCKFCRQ

[3] = target: T3, Progesterone receptor (Homo sapiens, UniProt P06401); assay type: functional
T3 sequence (P06401 whole entry): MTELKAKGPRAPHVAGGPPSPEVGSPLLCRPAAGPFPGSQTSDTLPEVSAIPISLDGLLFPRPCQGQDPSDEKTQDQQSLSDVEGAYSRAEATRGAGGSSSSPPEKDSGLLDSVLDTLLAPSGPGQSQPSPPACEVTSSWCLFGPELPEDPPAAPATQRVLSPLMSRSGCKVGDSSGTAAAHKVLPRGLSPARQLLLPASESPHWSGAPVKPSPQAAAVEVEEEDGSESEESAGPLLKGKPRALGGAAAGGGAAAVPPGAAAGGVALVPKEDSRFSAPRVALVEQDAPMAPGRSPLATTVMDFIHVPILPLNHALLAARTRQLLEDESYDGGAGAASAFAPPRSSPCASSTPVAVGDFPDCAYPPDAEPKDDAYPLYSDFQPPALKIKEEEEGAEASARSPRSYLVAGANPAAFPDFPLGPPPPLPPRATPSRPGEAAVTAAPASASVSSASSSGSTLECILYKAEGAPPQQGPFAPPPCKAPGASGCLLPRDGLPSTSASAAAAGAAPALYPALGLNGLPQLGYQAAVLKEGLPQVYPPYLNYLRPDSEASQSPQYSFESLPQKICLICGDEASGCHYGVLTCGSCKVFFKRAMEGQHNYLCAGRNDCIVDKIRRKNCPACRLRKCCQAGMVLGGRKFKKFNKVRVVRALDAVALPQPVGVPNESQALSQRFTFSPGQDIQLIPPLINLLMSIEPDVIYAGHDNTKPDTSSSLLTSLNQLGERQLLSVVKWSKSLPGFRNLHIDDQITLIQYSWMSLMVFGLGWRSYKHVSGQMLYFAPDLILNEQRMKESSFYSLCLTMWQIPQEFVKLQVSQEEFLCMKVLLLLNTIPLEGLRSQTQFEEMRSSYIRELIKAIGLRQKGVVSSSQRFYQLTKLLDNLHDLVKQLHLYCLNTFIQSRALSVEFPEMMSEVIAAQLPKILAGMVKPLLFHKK

[4] = target: Gamma-aminobutyric acid receptor subunit alpha-1/alpha-2/beta-2/gamma-2 (Homo sapiens, UniProt P14867+P18507+P47869+P47870); assay type: functional, cell-based
Sequence of Gamma-aminobutyric acid receptor subunit alpha-1/alpha-2/beta-2/gamma-2 (P14867 whole entry): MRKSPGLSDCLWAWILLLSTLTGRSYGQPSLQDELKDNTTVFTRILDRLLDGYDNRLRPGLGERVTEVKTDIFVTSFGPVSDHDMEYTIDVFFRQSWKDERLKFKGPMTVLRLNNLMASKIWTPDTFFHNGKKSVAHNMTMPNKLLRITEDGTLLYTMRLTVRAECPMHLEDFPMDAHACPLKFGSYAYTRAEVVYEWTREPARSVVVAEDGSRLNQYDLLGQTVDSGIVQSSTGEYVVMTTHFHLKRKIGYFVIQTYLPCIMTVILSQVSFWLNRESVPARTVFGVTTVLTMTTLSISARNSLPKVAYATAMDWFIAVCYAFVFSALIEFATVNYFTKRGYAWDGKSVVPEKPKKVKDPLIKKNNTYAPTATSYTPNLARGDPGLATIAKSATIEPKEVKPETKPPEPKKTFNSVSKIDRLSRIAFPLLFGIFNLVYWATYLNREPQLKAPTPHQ
Sequence of Gamma-aminobutyric acid receptor subunit alpha-1/alpha-2/beta-2/gamma-2 (P47870 whole entry): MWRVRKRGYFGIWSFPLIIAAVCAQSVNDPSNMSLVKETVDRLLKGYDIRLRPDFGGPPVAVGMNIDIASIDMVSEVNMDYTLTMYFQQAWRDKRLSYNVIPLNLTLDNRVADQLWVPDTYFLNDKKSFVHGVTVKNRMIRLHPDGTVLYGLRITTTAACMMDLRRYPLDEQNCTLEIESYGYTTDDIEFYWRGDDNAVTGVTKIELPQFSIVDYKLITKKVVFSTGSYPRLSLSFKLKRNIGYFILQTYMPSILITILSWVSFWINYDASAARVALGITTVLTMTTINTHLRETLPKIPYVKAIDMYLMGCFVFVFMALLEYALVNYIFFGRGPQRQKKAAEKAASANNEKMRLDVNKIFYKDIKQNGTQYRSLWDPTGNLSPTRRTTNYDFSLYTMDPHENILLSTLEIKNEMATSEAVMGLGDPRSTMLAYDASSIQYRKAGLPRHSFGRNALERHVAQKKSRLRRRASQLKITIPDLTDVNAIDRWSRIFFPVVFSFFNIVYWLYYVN
Sequence of Gamma-aminobutyric acid receptor subunit alpha-1/alpha-2/beta-2/gamma-2 (P18507 whole entry): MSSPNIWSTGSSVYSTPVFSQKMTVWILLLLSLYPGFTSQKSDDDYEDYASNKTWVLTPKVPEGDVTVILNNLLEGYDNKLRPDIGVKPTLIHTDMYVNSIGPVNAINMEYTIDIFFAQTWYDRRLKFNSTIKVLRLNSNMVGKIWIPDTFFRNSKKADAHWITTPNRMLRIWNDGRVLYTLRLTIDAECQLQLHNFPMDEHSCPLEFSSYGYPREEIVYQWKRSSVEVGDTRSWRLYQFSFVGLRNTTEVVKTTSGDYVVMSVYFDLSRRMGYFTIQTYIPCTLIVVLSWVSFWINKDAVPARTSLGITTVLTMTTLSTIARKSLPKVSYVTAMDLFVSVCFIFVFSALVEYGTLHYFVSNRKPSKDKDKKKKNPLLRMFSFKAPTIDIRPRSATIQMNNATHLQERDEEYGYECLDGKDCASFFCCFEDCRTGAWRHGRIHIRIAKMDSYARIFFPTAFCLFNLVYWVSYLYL
Sequence of Gamma-aminobutyric acid receptor subunit alpha-1/alpha-2/beta-2/gamma-2 (P47869 whole entry): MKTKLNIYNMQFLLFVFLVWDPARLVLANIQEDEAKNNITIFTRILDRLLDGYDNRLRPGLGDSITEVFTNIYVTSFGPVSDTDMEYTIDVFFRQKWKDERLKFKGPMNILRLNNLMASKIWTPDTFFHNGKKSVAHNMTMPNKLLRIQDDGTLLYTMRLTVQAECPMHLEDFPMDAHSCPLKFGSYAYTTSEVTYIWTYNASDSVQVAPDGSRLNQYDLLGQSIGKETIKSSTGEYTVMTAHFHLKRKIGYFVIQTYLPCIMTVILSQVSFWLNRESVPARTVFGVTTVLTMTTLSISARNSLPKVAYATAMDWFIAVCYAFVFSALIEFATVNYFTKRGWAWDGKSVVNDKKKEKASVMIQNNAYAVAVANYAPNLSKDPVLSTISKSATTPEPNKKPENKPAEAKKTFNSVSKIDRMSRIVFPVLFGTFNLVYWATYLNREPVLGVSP

[5] = target: T4, Alpha-1A adrenergic receptor (Homo sapiens, UniProt P35348)
T4 sequence (P35348 whole entry): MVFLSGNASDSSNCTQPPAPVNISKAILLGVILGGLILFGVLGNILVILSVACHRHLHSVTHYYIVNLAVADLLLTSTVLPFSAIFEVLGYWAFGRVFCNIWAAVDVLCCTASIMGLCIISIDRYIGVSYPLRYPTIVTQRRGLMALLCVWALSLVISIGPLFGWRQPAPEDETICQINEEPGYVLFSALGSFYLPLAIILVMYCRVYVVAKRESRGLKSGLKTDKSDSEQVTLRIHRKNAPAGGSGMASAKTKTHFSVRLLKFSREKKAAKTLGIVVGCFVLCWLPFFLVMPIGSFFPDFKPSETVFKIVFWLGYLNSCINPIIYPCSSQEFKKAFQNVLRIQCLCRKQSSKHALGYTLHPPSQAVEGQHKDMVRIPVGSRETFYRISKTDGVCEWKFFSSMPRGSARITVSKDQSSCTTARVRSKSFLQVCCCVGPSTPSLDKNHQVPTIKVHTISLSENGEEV

[6] = target: Cannabinoid receptor 1 (Homo sapiens, UniProt P21554)
Sequence of Cannabinoid receptor 1 (P21554 whole entry): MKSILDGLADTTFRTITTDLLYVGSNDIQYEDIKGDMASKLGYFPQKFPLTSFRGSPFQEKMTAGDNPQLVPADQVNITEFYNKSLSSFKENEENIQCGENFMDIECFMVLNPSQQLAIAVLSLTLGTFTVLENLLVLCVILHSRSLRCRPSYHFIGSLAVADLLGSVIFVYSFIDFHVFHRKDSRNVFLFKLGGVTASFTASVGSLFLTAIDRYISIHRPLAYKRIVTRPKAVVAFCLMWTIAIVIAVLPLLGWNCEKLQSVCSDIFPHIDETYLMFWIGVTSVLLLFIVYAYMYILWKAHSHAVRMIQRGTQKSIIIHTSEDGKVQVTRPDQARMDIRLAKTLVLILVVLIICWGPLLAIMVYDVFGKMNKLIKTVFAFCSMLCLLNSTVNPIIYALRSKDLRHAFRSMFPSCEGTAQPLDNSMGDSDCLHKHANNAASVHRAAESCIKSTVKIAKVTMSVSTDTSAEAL

[7] = target: T2, 5-hydroxytryptamine receptor 1A
[8] = target: 5-hydroxytryptamine receptor 2B (Homo sapiens, UniProt P41595)
Sequence of 5-hydroxytryptamine receptor 2B (P41595 whole entry): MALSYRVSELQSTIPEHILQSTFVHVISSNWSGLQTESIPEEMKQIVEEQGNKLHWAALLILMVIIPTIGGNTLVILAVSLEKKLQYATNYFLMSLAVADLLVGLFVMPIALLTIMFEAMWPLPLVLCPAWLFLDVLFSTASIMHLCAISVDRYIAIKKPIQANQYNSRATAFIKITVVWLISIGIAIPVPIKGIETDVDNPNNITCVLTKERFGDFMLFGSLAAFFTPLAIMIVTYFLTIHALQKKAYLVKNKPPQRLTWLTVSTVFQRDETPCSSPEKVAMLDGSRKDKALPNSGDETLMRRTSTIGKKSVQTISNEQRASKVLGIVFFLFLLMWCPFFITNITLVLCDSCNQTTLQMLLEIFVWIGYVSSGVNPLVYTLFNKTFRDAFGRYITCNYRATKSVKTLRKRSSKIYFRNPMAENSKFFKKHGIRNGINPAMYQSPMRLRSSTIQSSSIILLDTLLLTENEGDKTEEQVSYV

[9] = target: Glucagon receptor (Homo sapiens, UniProt P47871)
Sequence of Glucagon receptor (P47871 whole entry): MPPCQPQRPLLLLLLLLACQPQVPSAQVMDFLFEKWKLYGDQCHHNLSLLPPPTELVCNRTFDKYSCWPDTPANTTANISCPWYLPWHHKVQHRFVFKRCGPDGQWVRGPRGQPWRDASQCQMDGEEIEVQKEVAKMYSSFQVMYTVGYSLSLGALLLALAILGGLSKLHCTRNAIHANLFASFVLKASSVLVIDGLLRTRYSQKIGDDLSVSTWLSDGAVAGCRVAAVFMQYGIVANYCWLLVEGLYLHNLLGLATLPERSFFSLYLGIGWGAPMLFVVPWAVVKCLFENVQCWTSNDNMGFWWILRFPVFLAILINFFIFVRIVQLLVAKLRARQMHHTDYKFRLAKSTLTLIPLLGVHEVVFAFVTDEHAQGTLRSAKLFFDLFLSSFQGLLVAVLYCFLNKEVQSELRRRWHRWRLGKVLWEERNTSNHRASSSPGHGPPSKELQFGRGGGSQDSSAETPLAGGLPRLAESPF

[10] = target: Neurotensin receptor type 1 (Homo sapiens, UniProt P30989)
Sequence of Neurotensin receptor type 1 (P30989 whole entry): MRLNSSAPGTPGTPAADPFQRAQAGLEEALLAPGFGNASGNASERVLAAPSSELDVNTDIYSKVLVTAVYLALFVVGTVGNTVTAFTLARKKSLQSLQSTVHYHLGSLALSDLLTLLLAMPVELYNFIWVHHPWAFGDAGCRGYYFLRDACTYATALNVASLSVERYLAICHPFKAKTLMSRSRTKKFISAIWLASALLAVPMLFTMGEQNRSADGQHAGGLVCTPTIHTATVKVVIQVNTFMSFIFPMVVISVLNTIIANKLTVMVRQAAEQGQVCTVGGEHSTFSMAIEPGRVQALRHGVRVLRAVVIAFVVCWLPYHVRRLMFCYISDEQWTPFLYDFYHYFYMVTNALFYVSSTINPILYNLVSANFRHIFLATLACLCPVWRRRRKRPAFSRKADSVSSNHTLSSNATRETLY

[11] = target: D(1A) dopamine receptor (Homo sapiens, UniProt P21728)
Sequence of D(1A) dopamine receptor (P21728 whole entry): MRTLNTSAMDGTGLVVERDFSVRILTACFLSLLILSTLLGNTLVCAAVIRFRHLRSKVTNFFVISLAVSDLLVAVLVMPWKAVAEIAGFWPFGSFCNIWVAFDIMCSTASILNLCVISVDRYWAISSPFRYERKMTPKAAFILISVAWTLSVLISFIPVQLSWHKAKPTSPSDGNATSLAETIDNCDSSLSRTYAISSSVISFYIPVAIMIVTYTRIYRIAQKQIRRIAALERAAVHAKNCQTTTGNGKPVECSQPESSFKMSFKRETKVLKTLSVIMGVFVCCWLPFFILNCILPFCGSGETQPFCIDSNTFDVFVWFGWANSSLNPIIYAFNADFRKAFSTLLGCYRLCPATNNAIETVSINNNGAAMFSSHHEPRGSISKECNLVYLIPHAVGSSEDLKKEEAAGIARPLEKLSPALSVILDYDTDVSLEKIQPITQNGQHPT
Note: assay procedure not described here.

Structure (SMILES) | AC50 [1] [µM] | AC50 [2] [µM] | AC50 [3] [µM] | AC50 [4] [µM] | AC50 [5] [µM] | AC50 [6] [µM] | AC50 [7] [µM] | AC50 [8] [µM] | AC50 [9] [µM] | AC50 [10] [µM] | AC50 [11] [µM]
CC[C@@H](C(N)=O)N1CCCC1=O | > 30 | > 30 | > 30 | > 30 |  |  |  |  |  |  | 
CCC(CC)(CC(=O)Nc1cccc(/C=C/c2nc(C3CCC3)cs2)c1)C(=O)O | > 30 |  | > 30 |  |  |  |  |  |  |  | 
CCCC1O[C@@H]2C[C@H]3[C@@H]4CCC5=CC(=O)C=C[C@]5(C)[C@H]4[C@@H](O)C[C@]3(C)[C@]2(C(=O)CO)O1 (stereo partly drawn) [BUDESONIDE] |  | > 10 |  |  | > 10 | > 10 |  |  |  |  | 
C=CCN1C[C@H](C(=O)N(CCCN(C)C)C(=O)NCC)C[C@@H]2c3cccc4[nH]cc(c34)C[C@H]21 [CABERGOLINE] | > 10 |  | > 10 | > 30 | 3.62 |  | 0.073 | 0.0086 |  |  | 
NC1CCN(c2c(F)cc3c(=O)c(C(=O)O)cn(C4CC4)c3c2Cl)C1 (stereo not drawn) [CLINAFLOXACIN] |  |  |  | > 300 |  |  |  |  |  |  | 
CN1CCN(C2=Nc3ccccc3Sc3ccc(Cl)cc32)CC1 [CLOTHIAPINE] |  |  |  | > 30 |  |  |  |  |  |  | 
CN(C)CCC=C1c2ccccc2C=Cc2ccccc21 [CYCLOBENZAPRINE] | > 30 | > 10 |  |  | 0.261 | > 10 | 4.94 |  | > 30 | > 30 | 
CCOc1ccc(Cc2cc([C@@H]3O[C@H](CO)[C@@H](O)[C@H](O)[C@H]3O)ccc2Cl)cc1 [DAPAGLIFLOZIN] | > 30 |  |  |  | > 10 | > 10 | > 10 | > 10 |  |  | > 10
CN(C)CC/C=C1\c2ccccc2CSc2ccccc21 [DOTHIEPIN] | > 30 |  | > 30 |  | 3.2 |  |  |  |  |  | 
CC[C@H]1CN2CCc3cc(OC)c(OC)cc3[C@@H]2C[C@@H]1C[C@H]1NCCc2cc(OC)c(OC)cc21 [EMETINE] |  |  | > 30 | > 30 | 6 |  |  |  |  |  | 
COc1ccc(C(=O)Nc2ccccc2CCC2CCCCN2C)cc1 (stereo not drawn) [ENCAINIDE] | > 30 | > 10 |  |  | > 10 | > 10 | > 10 | 3.66 | > 30 | > 30 | > 10
O=[N+]([O-])O[C@@H]1CO[C@H]2[C@@H]1OC[C@@H]2O [ISOSORBIDE MONONITRATE] | > 30 | > 10 |  |  | > 10 | > 10 | > 10 | > 10 | > 30 | > 30 | > 10
Cc1cc(C)c(NC(=O)CN(CC(=O)O)CC(=O)O)c(C)c1Br [MEBROFENIN] |  |  |  | > 30 |  |  |  |  |  |  | 
COc1ccccc1N1CCN(CC(O)COc2cccc3ccccc23)CC1 (stereo not drawn) [NAFTOPIDIL] |  | 1.2 | > 30 |  | 0.543 |  |  | 0.047 |  |  | 
COc1cc2nc(N3CCN(C(=O)c4ccco4)CC3)nc(N)c2cc1OC [PRAZOSIN] | > 30 |  |  |  |  | > 10 |  | 2.57 | > 30 | > 30 | > 10
O=[N+]([O-])c1cn2c(n1)OC[C@@H](OCc1ccc(OC(F)(F)F)cc1)C2 [PRETOMANID] |  |  |  |  |  |  | > 10 | > 10 | > 30 | > 10 | > 10
Cc1oc(=O)oc1CN1CCN(c2cc3c(cc2F)c(=O)c(C(=O)O)c2n3C(C)S2)CC1 (stereo not drawn) [PRULIFLOXACIN] |  |  |  | > 30 |  |  |  |  |  |  | 
CCCCCNC(=N)N/N=C/c1c[nH]c2ccc(OC)cc12 [TEGASEROD] |  | 0.87 | 21 |  | 2.05 | 10 | 0.169 | 0.0206 | > 30 | > 30 | 0.942
COC1=C(OC)C(=O)C(C/C=C(\C)CC/C=C(\C)CC/C=C(\C)CC/C=C(\C)CC/C=C(\C)CC/C=C(\C)CC/C=C(\C)CC/C=C(\C)CC/C=C(\C)CCC=C(C)C)=C(C)C1=O [UBIDECARENONE] |  |  |  | > 30 |  |  |  |  |  |  | 
CCOc1ccccc1OCC1CNCCO1 (stereo not drawn) [VILOXAZINE] | > 30 | > 10 |  |  | 11.2 | > 10 | > 10 | 2.34 | > 30 | > 30 | > 10
CN(C)CCc1c[nH]c2ccc(C[C@H]3COC(=O)N3)cc12 [ZOLMITRIPTAN] | > 30 |  | > 30 | > 30 |  |  |  |  |  |  | 
